In patent US10426736B2, “Delivering functional nucleic acids to mammalian cells via bacterially-derived, intact minicells” (EnGenelC Molecular Delivery Pty. Ltd., priority 2004, dated 2019):

Tests used:
Caco-2 cell xenograft [1] = experiment: Dosing schedule time-course, Caco-2 xenograft, 5-FU (Example 7); type: in vivo, nude mice; conditions: free drug, 1×10^6 ng/dose, intravenous
Protocol: The experiment described in example 6 was repeated with the same controls and experimental groups except that G2 received free 5-FU (1×10^6 ng/dose) and in G3, G4 and G5, the second treatment was carried out with ^EGFRminicells5-FU. Minicells were administered at 1×10^9 per dose and each dose carried ˜80 ng 5-FU, i.e., ˜12,500-fold lower than free drug administration in G2 mice.

[2] = tested on: human breast adenocarcinoma cell line, MDA-MB-468; experiment: Doxorubicin sensitivity of MDA-MB-468 cell line; type: cell-based; conditions: parental MDA-MB-468
Caco-2 cell xenograft [3] = experiment: Dosing schedule time-course, Caco-2 xenograft, irinotecan (Example 6); type: in vivo, nude mice; conditions: free drug, ~2.4×10^5 ng/dose, intravenous
Protocol: Allowing sufficient time for efficient delivery of shRNA to the tumor cells before the receptor-targeted, drug-packaged minicells are administered improves the results. A time-course experiment was performed, wherein ^EGFRminicellsshRNA-MDR-1 were administered intravenously in nude mice carrying Caco-2 cell xenograft. In separate groups (n=11 mice per group), mice were given ^EGFRminicellsIrino either at 96 hr (G3), 120 hr (G4) or 144 hr (G5) after the ^EGFRminicellsshRNA-MDR-1 treatment. G1 and G2 were tumor only and free irinotecan (˜2.4×10^5 ng/dose) controls. The minicells were administered at 5×10^8 per dose and each dose carried ˜80 ng of irinotecan packaged in minicells, which is a 3,000-fold lower dose than that administered as free drug.

[4] = tested on: Human colon cancer cell line Caco-2; experiment: MTT cell proliferation assay, reversal of drug resistance in-vitro; conditions: single treatment; 72 hrs; free drugs 25 μM; MTT read at 490 nm
Protocol: Caco-2 cells were seeded at 3×10^6 cells/flask in Minimum Essential Medium with 10% cosmic calf serum and incubated for 3 hours at 37° C., 5% CO2.
The cells were treated with (a) ^EGFRminicellsshRNA-MDR-1, and (b) ^EGFRminicellsshRNA-nonsense. […] Minicells were added at a concentration of 10^10 per flask and all flasks were incubated for 72 hrs. The cells from each treatment were trypsinised and seeded at 1×10^4 cells/ml/well in 24-well plates and were incubated for 3 hrs at 37° C., 5% CO2. The control untreated cells were then incubated with (6 wells/treatment) (a) free irinotecan (25 μM), (b) free 5-FU (25 μM), (c) ^EGFRminicellsIrino, and (d) ^EGFRminicells5-FU.
The ^EGFRminicellsshRNA-MDR-1 treated Caco-2 cells were incubated with (6 wells/treatment) (a) ^CMV minicells5-FU (non-specifically targeted since the bispecific antibody is targeted to a surface protein on cytomegalovirus), (b) free irinotecan, (c) free 5-FU EGFR, (d) ^EGFRminicellsIrino, and (e) ^EGFRminicells5-FU. […]
All cells were incubated for a further 72 hrs followed by the colorimetric MTT cell proliferation assay (Cory et al., 1991) using the CellTiter 96 AQueous One Solution Cell Proliferation Assay (Promega Corp., Madison, Wis., USA), according to the manufacturer's instructions. The colorimetric measurements were read at 490 nm.

With `O=c1[nH]cc(F)c(=O)[nH]1` [5-FU, 5-fluorouracil] the “effect on tumor growth (FIG. 6)” value (Caco-2 cell xenograft [1]) was “no effect”.
For `COc1cccc2c1C(=O)c1c(O)c3c(c(O)c1C2=O)C[C@@](O)(C(=O)CO)C[C@@H]3O[C@H]1C[C@H](N)[C@H](O)[C@H](C)O1` [doxorubicin], the “sensitivity of cell line to drug” value [2] was “highly sensitive”.
With `CCc1c2c(nc3ccc(OC(=O)N4CCC(N5CCCCC5)CC4)cc13)-c1cc3c(c(=O)n1C2)COC(=O)[C@]3(O)CC` [irinotecan] the “effect on tumor growth (FIG. 5)” value (Caco-2 cell xenograft [3]) was “no effect” and the “resistance of Caco-2 cells to treatment (cell viability, FIG. 1)” value [4] was “highly resistant”.
